The term IC50 denotes the concentration that gives 50% inhibition.

SMILES strings stand for the structures.

Consider one molecule from ChEMBL document CHEMBL1155190, “Identification of a cell-active non-peptide sirtuin inhibitor containing N-thioacetyl lysine” (Bioorg Med Chem Lett, 2009).

Experiment [1] deals with T1, NAD-dependent protein deacetylase sirtuin-1 (Homo sapiens, UniProt Q96EB6).
T1 sequence (Q96EB6 whole entry): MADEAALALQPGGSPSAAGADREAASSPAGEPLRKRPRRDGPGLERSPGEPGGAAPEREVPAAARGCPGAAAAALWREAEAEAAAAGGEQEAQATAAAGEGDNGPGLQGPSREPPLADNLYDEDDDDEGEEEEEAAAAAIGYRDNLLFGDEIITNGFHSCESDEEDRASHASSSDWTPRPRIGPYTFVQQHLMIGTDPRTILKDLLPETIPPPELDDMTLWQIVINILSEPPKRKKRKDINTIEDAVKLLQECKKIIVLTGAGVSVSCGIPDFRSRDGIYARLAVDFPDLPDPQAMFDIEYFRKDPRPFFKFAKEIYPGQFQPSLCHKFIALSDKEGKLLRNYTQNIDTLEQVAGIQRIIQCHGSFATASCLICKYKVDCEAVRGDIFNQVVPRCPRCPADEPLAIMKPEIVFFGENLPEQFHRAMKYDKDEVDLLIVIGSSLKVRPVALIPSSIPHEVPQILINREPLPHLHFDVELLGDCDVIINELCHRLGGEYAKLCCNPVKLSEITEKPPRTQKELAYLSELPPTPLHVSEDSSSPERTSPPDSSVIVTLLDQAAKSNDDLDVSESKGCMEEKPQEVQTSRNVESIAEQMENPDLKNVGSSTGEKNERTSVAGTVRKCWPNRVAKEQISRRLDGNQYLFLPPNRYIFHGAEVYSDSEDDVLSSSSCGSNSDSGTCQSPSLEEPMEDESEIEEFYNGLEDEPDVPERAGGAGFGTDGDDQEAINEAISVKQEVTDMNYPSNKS
The experiment can be described thus: Inhibition of human recombinant SIRT1 after 60 mins by fluorimetric analysis.

The target of experiment [2] is T2, NAD-dependent protein deacetylase sirtuin-2 (Homo sapiens, UniProt Q8IXJ6).
T2 sequence (Q8IXJ6 whole entry): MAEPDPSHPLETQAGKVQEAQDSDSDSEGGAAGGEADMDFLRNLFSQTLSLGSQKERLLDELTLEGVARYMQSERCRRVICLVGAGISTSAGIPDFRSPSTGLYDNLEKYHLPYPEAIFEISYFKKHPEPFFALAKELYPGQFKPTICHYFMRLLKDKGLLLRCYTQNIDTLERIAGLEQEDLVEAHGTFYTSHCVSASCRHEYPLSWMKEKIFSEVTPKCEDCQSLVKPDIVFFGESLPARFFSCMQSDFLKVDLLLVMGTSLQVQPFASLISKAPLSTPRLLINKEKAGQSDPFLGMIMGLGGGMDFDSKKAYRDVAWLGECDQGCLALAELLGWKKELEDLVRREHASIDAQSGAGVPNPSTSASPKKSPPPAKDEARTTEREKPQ
The experiment can be described thus: Inhibition of human recombinant SIRT2 after 60 mins by fluorimetric analysis.

Experiment [3] addresses T3, NAD-dependent protein deacetylase sirtuin-3, mitochondrial (Homo sapiens, UniProt Q9NTG7).
T3 sequence (Q9NTG7 whole entry): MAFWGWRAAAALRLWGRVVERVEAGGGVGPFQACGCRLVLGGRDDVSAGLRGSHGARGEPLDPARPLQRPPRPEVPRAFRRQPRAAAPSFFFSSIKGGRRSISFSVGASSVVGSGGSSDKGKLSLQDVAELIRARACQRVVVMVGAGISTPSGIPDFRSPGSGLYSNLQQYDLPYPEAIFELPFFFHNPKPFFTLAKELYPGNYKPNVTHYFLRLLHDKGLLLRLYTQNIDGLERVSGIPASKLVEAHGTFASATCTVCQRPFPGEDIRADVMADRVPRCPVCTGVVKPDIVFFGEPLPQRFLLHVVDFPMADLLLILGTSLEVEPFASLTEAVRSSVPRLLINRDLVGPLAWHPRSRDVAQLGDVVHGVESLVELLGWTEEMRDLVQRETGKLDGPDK
The experiment can be described thus: Inhibition of human recombinant SIRT3 after 60 mins by fluorimetric analysis.

Turning to `CC(=S)NCCCC[C@H](NC(=O)OCc1ccccc1)C(=O)Nc1ccccc1`, the IC50 in experiment [1] was 2.7 µM; in experiment [2], 23 µM; in experiment [3], greater than 100 µM.
